Test results from USRE48253E1, “Methotrexate adjuvants to reduce toxicity and methods for using the same” (Tosk, Inc., priority 2008, dated 2020).

Experiments:
CCRF-CEM cells = assay: Cell Culture Study I: MTX cytotoxicity, alamarBlue; format: cell-based, human; settings: 72 hours
Experimental: In this study, CCRF-CEM cells purchased from ATCC were cultured and then 12 tubes containing approximately 10^6 cells each treated for 72 hours with media (Group1), MTX 0.03 μM (Group2), MTX+Leucovorin 1 μM (Group3), MTX+Leucovorin 10 μM (Group4), MTX+Leucovorin 100 μM (Group5), MTX+TK-112690 1 μM (Group6), MTX+TK-112690 10 μM (Group7) and MTX+TK-112690 100 μM (Group8). […] Viability was measured as percent reduction of alamarBlue absorbance.
The tumor cell line CCR-CEM (human T-cell acute lymphoblastic leukemia) is obtained from American Type Culture Collection (CRL-1593.2) and cultured in accordance with the product information sheet with the following exceptions: 55.3 cm^2 Petri dishes are used instead of 75 cm^2 culture flasks, and 1% penicillin-streptomycin solution (HyClone SV30010) and 1% GlutaMAX™ (Gibco 35050) are added to the culture medium.
TK-112690, the representative 2,2′-anhydropyrimidine test article, is dissolved in 40% DMSO, sterile filtered then diluted with sterile distilled water to obtain initial working solutions of 10, 100 and 1000 μM. In testing, a 100 fold dilution is made in culture media to give final assay concentrations of 0.1, 1.0 and 10.0 μM. MTX (SAFC Biosciences M8407) is dissolved in sterile distilled water and 5 N NaOH then sterile filtered. The final pH of the stock solution is 7.8 and working solutions are made with sterile distilled water for final assay concentrations of 30, 3.0, 0.3, 0.03 and 0.003 μM. Leucovorin (Sigma F-7878) is dissolved in sterile distilled water, sterile filtered and diluted with sterile distilled water for final assay concentrations of 0.1, 1.0 and 10.0 μM.
Aliquots of 100 μL of cell suspension are plated in 96 well microtiter plates (Corning costar 3595) and placed in an atmosphere of 5% CO2 at 37° C. (Fisher Scientific Isotemp 3500 CO2 Incubator). After 24 hours, 100 μL of growth medium [RPMI-1640 w/L-glutamine (Cambrex 12-702Q) fortified with sodium pyruvate (HyClone SH30239.01), fetal bovine serum (SAFC Biosciences 12107C) and HEPES buffer (Gibco 15630)] and 2 μL of test solution or vehicle are added respectively per well and the plates incubated for an additional 72 hour incubation. MTX is evaluated at concentrations of 0.003, 0.03, 0.30 and 3.0 μM alone or in combination with either a 2,2′-anhydropyrimidine test article or Leucovorin at concentrations of 0.1, 1.0, 10.0 μM. At the end of incubation, the efficacy of anti-cell proliferation is determined by optical absorbance at λ=570 and 600 nm [Spectramax 250 (Molecular Devices)] in accordance with the standard alamarBlue™ (Biosource) protocol.
Group 1 is the cell control (media treated). Group 2 corresponds to cells treated with 0.03 μM MTX. Group 3 are cells treated with 1.0 μM Leucovorin. Group 4 are cells treated with 0.1 μM Leucovorin. Group 5 are cells treated with 10 μM TK-112690. Group 6 are cells treated with MTX+10 μM TK-112690. Group 7 are cells treated with MTX+1.0 μM TK-112690. Group 8 MTX+0.1 μM TK-112690.

[1] = test system: Wild-type (Oregon-R) Drosophila melanogaster; assay: Fly Study II: MTX lethality in wild-type flies; format: in vivo; settings: for MTX dose with lethal effects in wild-type flies: orally in food admix, scored 15 days after initiation
Experimental: (§1) Embryos of UPase knockout (19519) Drosophila melanogaster were orally exposed to a dose range of MTX doses in food admix. Embryos of Wild-type (Oregon-R) were orally exposed to the same dose range of MTX in presence and absence of 0.04 mg TK-112690. Scoring was based on life or death 15 days after initiation of MTX exposure. […] Wild-type D. melanogaster are sensitive to lethal effects of ≥0.1 mg MTX.
(§2) The aim of this study was to evaluate the lethal effects of a range (0.001, 0.01, 0.05, 0.1, 0.2, 0.4 mg) of doses of orally fed MTX in wild-type (Ore-R) and UPase mutant Drosophila melanogaster. Embryos of UPase knockout (19519) Drosophila melanogaster were orally exposed to a dose range of MTX (0.001, 0.01, 0.05, 0.1, 0.2, 0.4 mg) in food admix. Embryos of Wild-type (Oregon-R) were orally exposed to the same dose range of MTX in presence and absence of 0.04 mg TK-112690. Scoring was based on life or death 15 days after initiation of MTX exposure.

[2] = test system: UPase knockout (19519) Drosophila melanogaster; assay: Fly Study II: MTX lethality in UPase knockout flies; format: in vivo
Experimental: as §1, §2

SMILES | viability, MTX alone vs cell control (CCRF-CEM cells; MTX 0.03 μM) | MTX dose with lethal effects in wild-type flies [1] [mg] | MTX dose with lethal effects in wild-type flies ([1]; listed as Methotrexate) [mg] | lethal effects of MTX in UPase knockout flies ([2]; MTX 0.001-0.4 mg orally) | effect on MTX cytotoxicity (viability, alamarBlue) (CCRF-CEM cells; combined with MTX 0.03 μM) | viability, agent alone vs control (CCRF-CEM cells; without MTX) | methotrexate dose from whose lethality protection is provided ([1]; 0.04 mg TK-112690) [mg] | protection of wild-type flies from lethal effects of MTX ([1]; 0.04 mg TK-112690, MTX 0.001-0.4 mg) | added protection from methotrexate toxicities in UPase mutant flies ([2]; TK-112690 added to dose range of methotrexate)
CN(Cc1cnc2nc(N)nc(N)c2n1)c1ccc(C(=O)N[C@@H](CCC(=O)O)C(=O)O)cc1 [MTX, N-[4-[[(2,4-diamino-6-pteridinyl)methyl]methylamino]benzoyl]-L-glutamic acid, reference compound] | statistically significantly different from Group1 | ≥ 0.1 | 0.1 | resistant to lethal effects | – | – | – | – | –
Cc1cn2c(nc1=O)O[C@H]1[C@H](O)[C@@H](CO)O[C@H]12 [TK-112690, 2,2′-anhydro-5-methyluridine] | – | – | – | – | do not interfere with methotrexate cytotoxicity | not statistically different than control | ≤ 0.4 | resistant to the lethal effects | does not provide added protection
